What was measured:
[1] = tested on: E. coli M50 producing CMY 6, DHA-1/2 beta-lactamase enzymes; experiment: Time kill study against clinical isolate of E. coli M50; type: cell-based; conditions: for Bacterial count (Log10 CFU/ml) 0 hour: 0 hour (starting inoculum); for Effect on bacterial counts when used alone: throughout the duration of the study
Procedure: (§1) The killing effect of the combinations according to invention was studied by performing time kill studies. In a typical time kill study, the freshly grown cultures were diluted to the required cell density (initial starting inoculum) in Cation adjusted Muller Hinton broth medium (BD, USA). The antibacterial agents (either alone or in combination) at the required concentrations were added into the culture-containing medium. The samples were incubated under shaking condition (120 rpm) at 37° C. Enumeration of viable bacterial count was done every 2 hour by diluting in normal saline and plating on to the Tryptic Soya Agar plates (BD, USA). The plates were incubated for 24 hours to arrive at the viable bacterial count. The results are expressed in terms of log10 CFU per ml. In general, the decrease of 1 log10 CFU/ml corresponds to 90% killing of bacteria. Similarly, 2 log10 CFU/ml reductions indicates to 99% killing of bacteria and 3 log10 CFU/ml reductions is equal to 99.9% killing of bacteria.
E. coli M50 produces resistant CMY 6, DHA-1/2 beta-lactamase enzymes.

[2] = tested on: K. pneumoniae H521 producing KPC, SHV and TEM beta-lactamase enzymes; experiment: Time kill study against clinical isolate of K. pneumoniae H521; type: cell-based; conditions: for Bacterial count (Log10 CFU/ml) 0 hour: 0 hour (starting inoculum); for Change in Log10 CFU/ml over 0 hour count after 8 hours: positive = increase; for Effect on bacterial counts when used alone: throughout the duration of the study
Procedure: as §1
K. pneumoniae H521 produces resistant KPC, SHV and TEM beta-lactamase enzymes.

[3] = agent alone 4 mcg/ml, negative = reduction

Compound	Bacterial count (Log10 CFU/ml) 0 hour ([1]; agent alone 4 mcg/ml) [Log10 CFU/ml]	Bacterial count (Log10 CFU/ml) 2 hour ([1]; agent alone 4 mcg/ml) [Log10 CFU/ml]	Bacterial count (Log10 CFU/ml) 4 hour ([1]; agent alone 4 mcg/ml) [Log10 CFU/ml]	Bacterial count (Log10 CFU/ml) 6 hour ([1]; agent alone 4 mcg/ml) [Log10 CFU/ml]	Bacterial count (Log10 CFU/ml) 8 hour ([1]; agent alone 4 mcg/ml) [Log10 CFU/ml]	Change in Log10 CFU/ml over 0 hour count after 8 hours [1, 3] [Log10 CFU/ml]	Bacterial count (Log10 CFU/ml) 0 hour ([2]; agent alone 4 mcg/ml) [Log10 CFU/ml]	Bacterial count (Log10 CFU/ml) 2 hour ([2]; agent alone 4 mcg/ml) [Log10 CFU/ml]	Bacterial count (Log10 CFU/ml) 4 hour ([2]; agent alone 4 mcg/ml) [Log10 CFU/ml]	Bacterial count (Log10 CFU/ml) 6 hour ([2]; agent alone 4 mcg/ml) [Log10 CFU/ml]	Bacterial count (Log10 CFU/ml) 8 hour ([2]; agent alone 4 mcg/ml) [Log10 CFU/ml]	Change in Log10 CFU/ml over 0 hour count after 8 hours ([2]; agent alone 4 mcg/ml) [Log10 CFU/ml]	Effect on bacterial counts when used alone [1]	Effect on bacterial counts when used alone [2]	other results
C=CC1=C(C(=O)O)N2C(=O)[C@@H](NC(=O)/C(=N\OCC(=O)O)c3csc(N)n3)[C@H]2SC1 [Cefixime]	7.14	8.95	8.40	8.90	8.65	1.51	7.18	8.26	8.85	8.98	8.95	1.77			
COCC1=C(C(=O)O)N2C(=O)[C@@H](NC(=O)/C(=N\OC)c3csc(N)n3)[C@H]2SC1 [Cefpodoxime]	7.14	8.18	8.88	8.95	8.40	1.26	7.18	8.60	8.74	8.93	8.81	1.63			
Nc1nc(/C(=C/CC(=O)O)C(=O)N[C@@H]2C(=O)N3C(C(=O)O)=CCS[C@H]23)cs1 [Ceftibuten]	7.14	7.90	8.40	8.98	8.93	1.79	7.18	8.18	8.88	8.40	8.60	1.42	did not reduce the bacterial counts	did not reduce the bacterial counts	
CO/N=C(\C(=O)N[C@@H]1C(=O)N2C(C(=O)O)=C(COC(N)=O)CS[C@H]12)c1ccco1 [Cefuroxime]	7.14	8.33	8.54	9.20	8.65	1.51	7.18	8.48	8.70	8.78	8.60	1.42	did not reduce the bacterial counts	did not reduce the bacterial counts	
NCCONC(=O)[C@@H]1CC[C@@H]2CN1C(=O)N2OS(=O)(=O)O [Compound of Formula (I), (2S,5R)—N-(2-aminoethoxy)-7-oxo-6-(sulfoxy)-1,6-diazabicyclo[3.2.1]octane-2-carboxamide]	7.14	6.40	5.32	5.32	5.34	−1.8	7.18	7.98	8	8.37	8.04	0.86	did not reduce the bacterial counts	did not reduce the bacterial counts	
C[C@@H](O)[C@H]1C(=O)N2C(C(=O)O)=C(SCCN=CN)C[C@H]12 [Imipenem]															Bacterial count (Log10 CFU/ml) 0 hour ([1]; 1 mcg/ml alone): 7.14 Log10 CFU/ml; Bacterial count (Log10 CFU/ml) 2 hour ([1]; 1 mcg/ml alone): 4.25 Log10 CFU/ml; Bacterial count (Log10 CFU/ml) 4 hour ([1]; 1 mcg/ml alone): 4.60 Log10 CFU/ml; Bacterial count (Log10 CFU/ml) 6 hour ([1]; 1 mcg/ml alone): 6.04 Log10 CFU/ml; Bacterial count (Log10 CFU/ml) 8 hour ([1]; 1 mcg/ml alone): 7.34 Log10 CFU/ml; Change in Log10 CFU/ml over 0 hour count after 8 hours ([1]; 1 mcg/ml alone, positive = increase): 0.2 Log10 CFU/ml; Bacterial count (Log10 CFU/ml) 0 hour ([2]; 8 mcg/ml alone): 7.18 Log10 CFU/ml; Bacterial count (Log10 CFU/ml) 2 hour ([2]; 8 mcg/ml alone): 8.10 Log10 CFU/ml; Bacterial count (Log10 CFU/ml) 4 hour ([2]; 8 mcg/ml alone): 8.81 Log10 CFU/ml; Bacterial count (Log10 CFU/ml) 6 hour ([2]; 8 mcg/ml alone): 8.70 Log10 CFU/ml; Bacterial count (Log10 CFU/ml) 8 hour ([2]; 8 mcg/ml alone): 9.11 Log10 CFU/ml; Change in Log10 CFU/ml over 0 hour count after 8 hours ([2]; 8 mcg/ml alone): 1.93 Log10 CFU/ml
